# Laboratory results from US10004747B2, “Combination therapy” (Boehringer Ingelheim International GmbH, priority 2010, dated 2018).
# Entries after “also recorded” stand apart in the source; their conditions may differ. Marks after values point to notes of the source that are not given here.
# Key:
# [1] = Linagliptin alone or with low-dose exenatide for 28 days: plasma parameters and body composition in DIO rats
# [2] = Pharmacokinetics of BI 1356 after multiple oral doses once daily for 12 days in patients with type 2 diabetes; conditions: for RA, AUC (accumulation ratio) / RA, Cmax (accumulation ratio): 12 days, type 2 diabetes patients, gMean
# [3] = Day 29, DIO rats, vehicle pump + Linagliptin 3 mg/kg PO, mean ± SEM
structure (smiles),measurement,setting,value
CC#CCn1c(N2CCC[C@@H](N)C2)nc2c1c(=O)n(Cc1nc(C)c3ccccc3n1)c(=O)n2C [BI 1356],Carcass Fat,[1]; [3],151.1 ± 7.3 g
same,Carcass Protein,[1]; [3],63.8 ± 4.0 g
same,Carcass Water,[1]; [3],212.6 ± 3.4 g
same,GLP-1 (pM),[1]; [3],5.72 ± 0.9^b pM
same,Glucose,[1]; [3],8.72 ± 0.22 mM
same,Insulin,[1]; [3],1.82 ± 0.36 ng/mL
same,Leptin,[1]; [3],23.9 ± 2.5 ng/mL
same,augmentation of the effect of a low dose of exenatide,"[1]; linagliptin 3 mg/kg po in combination with exenatide 3 μg/kg/day sc, 28 days, DIO rats",does not augment the effect of a low dose of exenatide
same,"effect on body weight, daily food intake, plasma glucose, insulin or carcass fat compared to vehicle-treated controls","[1]; rat, in vivo",no effect
same,"RA, AUC (accumulation ratio)",[2]; 1 mg once daily oral,2.03
same,"RA, Cmax (accumulation ratio)",[2]; 1 mg once daily oral,1.44
same,"RA, AUC (accumulation ratio)",[2]; 2.5 mg once daily oral,1.37
same,"RA, Cmax (accumulation ratio)",[2]; 2.5 mg once daily oral,1.25
same,"RA, AUC (accumulation ratio)",[2]; 5 mg once daily oral,1.33
same,"RA, Cmax (accumulation ratio)",[2]; 5 mg once daily oral,1.33
same,"RA, AUC (accumulation ratio)",[2]; 10 mg once daily oral,1.18
same,"RA, Cmax (accumulation ratio)",[2]; 10 mg once daily oral,1.40
same,excretion via the kidney,[2]; therapeutic oral dose levels,< 7 % of the administered oral dose
same,main route of excretion,[2]; therapeutic oral dose levels,mainly excreted via the liver; also recorded: primarily excreted unchanged via the bile
same,body weight from day 11 after exenatide treatment,"BI 1356 3 mg/kg po from Day 11 after exenatide 30 μg/kg/day Day 1-10, DIO rats, vs vehicle control",stabilize their body weight at the new weight level
same,less fat put on than vehicle-treated counterparts during exenatide withdrawal,"linagliptin 3 mg/kg po after exenatide withdrawal, DIO rats, p=0.07",10.6%
same,body fat weight regain after GLP-1R agonist cessation,"replacement of exenatide 30 μg/kg/day (Day 1-10) with linagliptin 3 mg/kg po from Day 11, DIO rats",prevents body fat weight regain
